Data as given in ChEMBL document CHEMBL1146578, “10-Methoxydihydrofuscin, fuscinarin, and fuscin, novel antagonists of the human CCR5 receptor from Oidiodendron griseum” (J Nat Prod, 2003).

The compounds below were run against C-C chemokine receptor type 5 (Homo sapiens, UniProt P51681) (assay: Displacement of [125I]human-MIP1-alpha from human CCR5 receptor expressed in CHO cells by SPA).
Type: cell-based

C-C chemokine receptor type 5, sequence (P51681 whole entry): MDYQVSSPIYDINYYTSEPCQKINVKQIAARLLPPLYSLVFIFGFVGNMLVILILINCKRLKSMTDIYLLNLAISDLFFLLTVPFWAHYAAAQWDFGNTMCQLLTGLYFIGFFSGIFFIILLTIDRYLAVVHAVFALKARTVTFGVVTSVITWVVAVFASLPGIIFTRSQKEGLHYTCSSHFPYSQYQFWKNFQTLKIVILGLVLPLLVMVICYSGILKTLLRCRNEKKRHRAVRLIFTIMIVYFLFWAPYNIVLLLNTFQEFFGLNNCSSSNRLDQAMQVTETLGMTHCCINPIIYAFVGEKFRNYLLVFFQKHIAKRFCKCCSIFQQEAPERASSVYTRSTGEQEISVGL

IC50 [µM] | Structure (SMILES)
80 | CC1OC(=O)c2c3c(c(O)c(O)c21)OC(C)(C)CC3 (stereo not drawn) [FUSCINARIN]
154 | COC1C(=O)OC(C)c2c(O)c(O)c3c(c21)CCC(C)(C)O3 (stereo not drawn)
21 | CC1OC(=O)C=C2C3=C(OC(C)(C)CC3)C(=O)C(O)=C21 (stereo not drawn) [FUSCIN]
